Common to all, as to assay: NCI-60 cell line screen, 48 h
Test [1] concerns A549 NSCLC.
For test [2], the system named is MALME-3M melanoma.
The test system of test [3] is MDA-MB-231 breast.
For test [4], the system named is MOLT-4 leukemia.
Test [5] has as its system NCI-H23 lung.
Test [6] relates to OVCAR-4 ovarian.
Test [7] concerns OVCAR-5 ovarian.
Test [8] deals with RPMI-8226 leukemia.
For test [9], the system named is SK-MEL-2 melanoma.
Test [10] deals with SN12C renal.

Each structure is given as a SMILES string. Values joined by “and” are separate entries in the source; they are usually repeats but may differ in a detail not shown here. Equal entries are not always repeated.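 Grown in 96-well plates, cells were treated for 48 hours with each compound at five concentrations. Insufficient inhibition: endpoint recorded as highest concentration tested. The concentration for 50% growth inhibition is given as GI50. TGI is the concentration that stops growth completely.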

Consider `O=C1CC(NC(=O)C(F)(F)F)c2c1csc2Br` (configuration not stated), for which the TGI in test [1], in test [2], in [3], in test [4], in test [5] and in [6] was above 100 µM in each case. Besides, the TGI is 6.03 µM in test [7], above 100 µM in [8], above 100 µM in [9] and above 100 µM in test [10].
As to `CSc1ccc(C2=NN(C(=O)c3ccc(F)cc3)C(c3ccc(F)cc3)C2)cc1` (configuration not stated), the GI50 is 11.7 µM in test [1]; 12.1 µM in [2]; 14 µM in test [3]; 12.3 µM in test [4]; 18.2 µM in [5]; 14.9 µM in [6]. The GI50 is 18.2 µM in test [7], 1.68 µM in [8], 18.8 µM in test [9] and 7.21 µM in [10]. The TGI in test [1] was found to be 26.9 µM; in test [2], 26 µM; in test [3] it was 32.3 µM; in test [4], 38.2 µM; in test [5], 36.2 µM; in test [6] it was 30.3 µM. Moreover, the TGI in test [7] was determined as 33.3 µM; in [8], 4.2 µM; in [9] it was 34.6 µM; in test [10] it was 19.2 µM.
For `COc1cc(OC)c(/C=C/S(=O)(=O)Cc2cnc(OC)c(N)c2)c(OC)c1`, the GI50 was below 0.0263 µM in test [1]; above 100 µM in [2]; below 0.0276 µM in test [3]; below 0.0218 µM in [4]; below 0.0262 µM in [5]; below 0.0456 µM in [6]. Moreover, the GI50 in test [7] is below 0.0482 µM; in [8] it was below 0.0206 µM; in [9] it was below 0.01 µM; in [10] it was below 0.0232 µM. Further, the TGI in [1], in test [2], in [3], in [4], in [5] and in [6] was above 100 µM each time. Further, the TGI in [7], in [8], in test [9] and in [10] was above 100 µM each time.
Regarding `CCN(CC)c1cc2c3c(c1)CCCN3CCC2`, the TGI in test [1], in test [2], in [3], in test [4], in test [5] and in test [6] was above 10 µM each time. In addition, the TGI in [8], in [9] and in [10] was above 10 µM each time.
As to `CCN1CCN(C(=O)[C@]23CC[C@@H](C)[C@H](C)[C@@H]2C2=CC[C@@H]4[C@@]5(C)C/C(=C/c6ccncc6)C(=O)C(C)(C)[C@@H]5CC[C@@]4(C)[C@]2(C)CC3)CC1`, the GI50 in test [1] was 1.78 µM; in [2] it was 1.5 µM; in test [3], 1.55 µM; in test [4] it was 1.78 µM; in [5] it was 1.75 µM; in [6], 1.65 µM. For the same compound, the GI50 in test [7] was 1.46 µM; in [8], 1.88 µM; in test [9], 1.91 µM; in test [10], 1.63 µM. Further, the TGI came to 3.72 µM in test [1]; 2.83 µM in test [2]; 2.95 µM in test [3]; 4.57 µM in test [4]; 3.41 µM in test [5]; 3.18 µM in test [6]. Further, the TGI in test [7] is 2.77 µM; in [8], 5.91 µM; in test [9] it was 3.84 µM; in [10], 2.99 µM.
Turning to `CC(=O)N[C@H]1C=C[C@@H]2/C=C(C)/C=C/[C@@H](C)[C@H]([C@H](C)[C@H](O)[C@@H](C)NC(C)=O)OC(=O)/C=C/C=C(C)\C=C\[C@]2(C)C1`, the TGI in test [1] is 4.65 µM and > 45 µM; in test [2], 4.65 µM and 24.7 µM; in test [3], 0.0235 µM and < 0.0045 µM; in [4] it was above 45 µM; in test [5], 4.65 µM and > 45 µM; in test [6], above 45 µM. Moreover, the TGI is above 45 µM in test [7]; 4.65 µM and 13.1 µM in [8]; 17.9 µM in test [9]; 4.65 µM and > 45 µM in test [10]. For the same compound, the GI50 is 0.00333 µM and < 0.0045 µM in test [3]; 11 µM in [4]; 6.59 µM in test [6]; 14.1 µM in test [7]; 0.0428 µM and 0.0045 µM in test [8]; 5.11 µM in test [9]. Further, the GI50 in [10] was 0.0212 µM and 0.00535 µM.
Consider `ClCc1cccc(Cn2cnc3c(NC45CC6CC(CC(C6)C4)C5)ncnc32)c1`, for which the GI50 in test [1] was 21.7 µM; in [2] it was 14.6 µM; in [3] it was 15.5 µM; in [4], 9.92 µM; in test [5], 19.6 µM; in test [6], 15.5 µM. Besides, the GI50 is 19.2 µM in [7], 10.8 µM in test [8], 16.7 µM in test [9] and 21.2 µM in [10]. For the same compound, the TGI in test [1] was above 60.1 µM; in test [2] it was 32.4 µM; in [3], 39.3 µM; in test [4] it was 36 µM; in [5], 46.4 µM; in test [6], 38.8 µM. Further, the TGI was 36.4 µM in [7], above 53.2 µM in test [8], 48.1 µM in test [9] and 50.9 µM in test [10].
Consider `O=Cc1ccc(-c2cc(C=O)c(-c3cccs3)[nH]2)s1`, for which the GI50 is 29.8 µM in test [1]; above 100 µM in test [2]; above 100 µM in [3]; 81 µM in test [4]; above 100 µM in [5]; 12 µM in [6]. Further, the GI50 in [7] was 66.4 µM; in [8], 79.1 µM; in test [9], above 100 µM. For the same compound, the TGI was 75 µM and > 100 µM in test [1]; 75 µM and > 100 µM in [2]; 75 µM and > 100 µM in [3]; 75 µM and > 100 µM in test [4]; 75 µM and > 100 µM in test [5]; 75 µM and > 100 µM in test [6]. Further, the TGI is above 100 µM in test [7]; 75 µM and > 100 µM in test [8]; 75 µM and > 100 µM in test [9]; 75 µM and > 100 µM in test [10].
For the compound `COc1ccc(N2C(=O)CC(Cl)C2=O)cc1` (configuration not stated), the TGI is above 100 µM in [1]; 32.8 µM in test [2]; 36.5 µM in test [3]; 48.5 µM in test [5]; 34.3 µM in test [6]; 34.1 µM in [7]. Further, the results for the TGI in test [8], in test [9] and in test [10] were 37.2 µM, above 100 µM and 32.7 µM, respectively.
Turning to `CN1CCN(CCCN)CC1`, the TGI in test [1], in [2], in test [3], in test [4], in test [5] and in test [6] was above 100 µM throughout. Besides, the TGI in test [7], in test [8], in test [9] and in test [10] was above 100 µM each time.
As for `COC(=O)c1cc2c(cc1Cl)SC(N(N(C)C)S(=O)(=O)c1ccc(Br)s1)=NS2(=O)=O`, the GI50 was 32 µM in test [1]; 24.9 µM in test [2]; 20.3 µM in test [3]; 15.5 µM in test [4]; 28.5 µM in test [5]; 19.2 µM in test [6]. The GI50 in test [7] was 29.8 µM; in test [8] it was 25.4 µM; in test [9], 3.2 µM; in test [10], 30.5 µM. Moreover, the TGI in test [1] was above 100 µM; in test [2] it was 74 µM; in [3], 43.9 µM; in test [4] it was 36.1 µM; in test [5] it was 70.9 µM; in test [6], 53.7 µM. Also, the TGI is 81.1 µM in [7], 74.1 µM in test [8], 9.66 µM in test [9] and above 100 µM in test [10].
Take `Cc1cc(C)c([O-])c(CN(C)CCN(C)Cc2cc(C)cc(C)c2[O-])c1.O=C([O-])c1cccc(C(=O)[O-])n1.[Ti+4]`: the GI50 was 3.18 µM in [1]; 1.45 µM in [2]; 3.42 µM in test [3]; 3.12 µM in [4]; 2.03 µM in [5]; 2.87 µM in test [6]. For the same compound, the GI50 in test [7] was 2.31 µM; in test [8], 1.37 µM; in test [10] it was 3.69 µM. The TGI is above 100 µM in test [1]; 5.21 µM in [2]; above 100 µM in [3]; above 100 µM in test [4]; 5.06 µM in test [5]; above 100 µM in test [6]. Also, the TGI in [7] is above 100 µM; in test [8], 5.17 µM; in test [10], above 100 µM.
Take `CC1(C)C2CCC3=C(CCC4(C)C5C[C@](C)(C(=O)O)CC[C@]5(C)CC[C@]34C)[C@@]2(C)CC[C@@H]1O` (some centres not stated): the TGI in test [1] turned out to be 26.6 µM; in [2], 31.5 µM; in test [3], 33.8 µM; in test [4], 48.9 µM; in [5] it was 43.2 µM; in [6], 32.9 µM. For the same compound, the TGI in test [7] was above 100 µM; in test [8] it was 51.1 µM.
As to `Nc1c(C(=O)c2ccc(Cl)cc2)sc(Nc2ccccc2)c1-c1nc2ccccc2s1`, the GI50 in [1] is above 100 µM; in [2] it was 0.751 µM; in [3], 2.35 µM; in test [4], 12.3 µM; in test [5], 1.64 µM; in [7] it was above 100 µM. The GI50 was 6.05 µM in [8], 3.89 µM in test [9] and above 20.2 µM in [10]. Also, the TGI in test [1] is above 100 µM; in test [2], above 100 µM; in test [3], above 100 µM; in test [4] it was above 89.6 µM; in [5] it was 18.5 µM; in test [7], above 100 µM. Further, the TGI in [8] is above 100 µM; in test [9], 21 µM; in [10], above 100 µM.
In the case of `CCN(CC)C(=C(C(Cl)=C(Cl)Cl)[N+](=O)[O-])N(CC)CC`, the TGI in test [1] was above 100 µM; in test [2] it was 91.6 µM; in test [3], above 100 µM; in [4] it was above 100 µM; in [5], above 100 µM; in test [6] it was above 100 µM. Besides, the TGI in test [7], in test [8] and in test [10] was above 100 µM in each case.
As for `Cn1ccnc1CC(C)(O)c1ccccc1` (configuration not stated), the TGI in [1], in test [2], in test [3], in test [5], in test [6] and in test [7] was above 100 µM throughout. In addition, the TGI in test [8], in test [9] and in test [10] was above 100 µM each time.
Consider `C=CCC(N[C@H](CO)c1ccccc1)c1ccc2ccccc2n1` (some centres not stated), for which the GI50 in test [1], in [2], in test [3], in test [5], in test [6] and in [7] was above 100 µM in each case. The GI50 in test [8], in test [9] and in test [10] was above 100 µM each time. For the same compound, the TGI in [1], in test [2], in [3], in test [5], in test [6] and in test [7] was above 100 µM in each case. In addition, the TGI in [8], in test [9] and in test [10] was above 100 µM throughout.
As to `COc1cc(/C=C/C(=O)CC(=O)/C=C/c2cc(OC)c(OC)c(OC)c2)cc(OC)c1OC`, the GI50 in [1] is 5.76 µM; in test [2], 5.06 µM; in test [3] it was 3.13 µM; in test [4], 2.98 µM; in test [5], 3.34 µM; in test [6], 3.27 µM. Besides, the GI50 in test [7] is 17.2 µM; in test [9], 5.87 µM; in test [10], 3.59 µM. The TGI in test [1] is above 100 µM; in [2] it was 21.7 µM; in [3], 9.12 µM; in test [4], above 100 µM; in [5] it was 20.2 µM; in test [6], 19.7 µM. In addition, the TGI is above 100 µM in [7], 78.8 µM in test [9] and 37 µM in [10].

The values are drawn from PubChem BioAssay (NCI).
